Results from patent US20120165403A1, “METHODS OF INHIBITING THE ACTIVITY OF HSP90 AND/OR ARYL HYDROCARBON RECEPTOR” (UNIVERSITY OF ROCHESTER, priority 2004, published 2012).

How the values were obtained:
hsp90 = experiment: Sucrose density gradient sedimentation of hsp90 in Hepa cytosol; format: biochemical, mouse; conditions: 2 h, 200 μM EGCG or 10 nM TCDD
Protocol: Competitive binding of EGCG was analyzed by velocity sedimentation on sucrose gradients in a vertical tube rotor (Tsui et al., Can. J. Physiol. Pharmacol 59:927-931 (1981); Jensen et al., Toxicol. Sci. 64:41-56 (2001), which are hereby incorporated by reference in their entirety). Hepa cytosol (100 μl of 2.5 mg/ml) or BP^rCl cytosol was incubated for two hours at room temperature with either 3 nM ^3H-TCDD, 0.5 nM ^3H-TCDD, or 5 nM ^3H-BNF, in the presence of DMSO, 150-fold excess TCDF, 1 μM 3M4NF, or EGCG. […] For competitive binding assays, fractions were assayed for radioactivity with ScintiVerse (Fisher Scientific, Fair Lawn, N.J.). […] For AhR and hsp90 density analysis, protein contained within an aliquot (200 of each fraction was separated by SDS-PAGE (7.5% acrylamide resolving gel) and transferred to PVDF membranes. Membranes were probed with antibodies recognizing AhR (Biomol) or hsp90 (Stressgen, Victoria, BC Canada). A crude estimate of the sedimentation coefficient for the EGCG shifted AhR complex was calculated by the method of Martin and Ames (Martin et al., J. Biol. Chem. 236:1372-1379 (1961), which is hereby incorporated by reference in its entirety) relative to the ^14C-BSA (4.4S) standard.

AhR = AhR protein levels by western blotting in Hepa cells; format: cell-based, mouse; conditions: over 12 hours
Protocol: Hepa cells were plated onto 6-well plates at a density of 5×10^5 cells/well and incubated overnight at 37° C. […] Cells were lysed (0.2% Triton, 5 mM EDTA in PBS) and total protein quantified using the Coomassie Plus Protein Assay Reagent (Pierce, Rockford, Ill.). Protein (30 μg) was separated by SDS-PAGE (7.5% acrylamide resolving gel) and transferred to PVDF membrane (Millipore, Bedford, Mass.). Membranes were probed with antibodies recognizing CYP1A1 (Xenotech, Lenexa, Kans.), AhR (Biomol, Plymouth Meeting, Pa.) and actin (Sigma). The secondary IgG antibodies were coupled to horseradish peroxidase (Jackson Immuno Research, West Grove, Pa.). Both primary and secondary antibodies were used at a dilution of 1:5000 in TBST (50 mM Tris, 300 mM NaCl, 0.5% Tween 20, pH 7.5) containing 5% milk. Proteins were visualized by chemiluminescence (KPL, Gaithersburg, Md.).

Question: With O=C(O[C@@H]1Cc2c(O)cc(O)cc2O[C@@H]1c1cc(O)c(O)c(O)c1)c1cc(O)c(O)c(O)c1 [EGCG, epigallocatechin gallate] as the molecule, how does the “effect on the sedimentation pattern of hsp90” value (hsp90) read?
Answer: dramatically altered the sedimentation pattern of hsp90

Question: What about the “effect on the TCDD-induced decrease of AhR levels” value (AhR; 200 μM EGCG with 150 pM TCDD) of the same molecule?
Answer: not exacerbated or prevented

Question: And the “AhR protein levels, treatment alone” value (AhR; EGCG 200 μM or TCDD 150 pM)?
Answer: not capable of inducing AhR degradation
